System: P12-Ichikawa
Assay: cell viability relative to DMSO control; higher = less cytotoxic
Settings: 48 h
Procedure, shortened: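 Viability, reported as a per-plate percentage of DMSO wells with cell-free wells as background, came from CellTiter-Glo One luminescence. Reading took place after 48 h at 37°C. Before that, NOMO1 or SEM (500 cells/well) or P12-Ichikawa (1000 cells/well) leukemia cells, adapted for at least four passages in each medium, were seeded in 1536-well plates (5 μl) and pin-dosed with library compounds in DMSO, 47 μM to 0.79 nM over 11 threefold points.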

[1] = HPLM + 10% dialyzed FBS, 0.000781 µM
[2] = HPLM + 10% dialyzed FBS, 0.00234 µM
[3] = HPLM + 10% dialyzed FBS, 0.00702 µM
[4] = HPLM + 10% dialyzed FBS, 0.0211 µM
[5] = HPLM + 10% dialyzed FBS, 0.0632 µM
[6] = HPLM + 10% dialyzed FBS, 0.19 µM
[7] = HPLM + 10% dialyzed FBS, 0.569 µM
[8] = HPLM + 10% dialyzed FBS, 1.71 µM
[9] = HPLM + 10% dialyzed FBS, 5.12 µM
[10] = HPLM + 10% dialyzed FBS, 15.4 µM
[11] = HPLM + 10% dialyzed FBS, 46.1 µM
[12] = RPMI 5 mM glucose + 10% FBS, 0.000781 µM
[13] = RPMI 5 mM glucose + 10% FBS, 0.00234 µM
[14] = RPMI 5 mM glucose + 10% FBS, 0.00702 µM
[15] = RPMI 5 mM glucose + 10% FBS, 0.0211 µM
[16] = RPMI 5 mM glucose + 10% FBS, 0.0632 µM
[17] = RPMI 5 mM glucose + 10% FBS, 0.19 µM
[18] = RPMI 5 mM glucose + 10% FBS, 0.569 µM
[19] = RPMI 5 mM glucose + 10% FBS, 1.71 µM
[20] = RPMI 5 mM glucose + 10% FBS, 5.12 µM
[21] = RPMI 5 mM glucose + 10% FBS, 15.4 µM
[22] = RPMI 5 mM glucose + 10% FBS, 46.1 µM
[23] = RPMI 5 mM glucose + 10% dialyzed FBS, 0.000781 µM
[24] = RPMI 5 mM glucose + 10% dialyzed FBS, 0.00234 µM
[25] = RPMI 5 mM glucose + 10% dialyzed FBS, 0.00702 µM
[26] = RPMI 5 mM glucose + 10% dialyzed FBS, 0.0211 µM
[27] = RPMI 5 mM glucose + 10% dialyzed FBS, 0.0632 µM
[28] = RPMI 5 mM glucose + 10% dialyzed FBS, 0.19 µM
[29] = RPMI 5 mM glucose + 10% dialyzed FBS, 0.569 µM
[30] = RPMI 5 mM glucose + 10% dialyzed FBS, 1.71 µM
[31] = RPMI 5 mM glucose + 10% dialyzed FBS, 5.12 µM
[32] = RPMI 5 mM glucose + 10% dialyzed FBS, 15.4 µM
[33] = RPMI 5 mM glucose + 10% dialyzed FBS, 46.1 µM

Row | Structure (SMILES) | cell viability [1] [%] | cell viability [2] [%] | cell viability [3] [%] | cell viability [4] [%] | cell viability [5] [%] | cell viability [6] [%] | cell viability [7] [%] | cell viability [8] [%] | cell viability [9] [%] | cell viability [10] [%] | cell viability [11] [%] | cell viability [12] [%] | cell viability [13] [%] | cell viability [14] [%] | cell viability [15] [%] | cell viability [16] [%] | cell viability [17] [%] | cell viability [18] [%] | cell viability [19] [%] | cell viability [20] [%] | cell viability [21] [%] | cell viability [22] [%] | cell viability [23] [%] | cell viability [24] [%] | cell viability [25] [%] | cell viability [26] [%] | cell viability [27] [%] | cell viability [28] [%] | cell viability [29] [%] | cell viability [30] [%] | cell viability [31] [%] | cell viability [32] [%] | cell viability [33] [%]
1 | CCc1cccc2c3c([nH]c12)C(CC)(CC(=O)O)OCC3 (stereo not given) | 108 | 107 | 110 | 109 | 104 | 105 | 105 | 108 | 99.4 | 99.2 | 93.7 | 104 | 107 | 106 | 103 | 101 | 99.9 | 100 | 93.1 | 96.4 | 96.6 | 85.7 | 94.4 | 98 | 99.9 | 103 | 102 | 101 | 98.9 | 98.1 | 92.9 | 94.1 | 84.8
2 | Cn1cnc(-c2cc3nccc(Oc4ccc(NC(=S)NC(=O)Cc5ccccc5)cc4F)c3s2)c1 | 79 | 85.6 | 77.3 | 92.7 | 91.4 | 91.5 | 94.1 | 87.8 | 83.9 | 71.8 | 15.2 | 80.9 | 82.9 | 80.5 | 87.1 | 84.7 | 85.2 | 87.1 | 92.6 | 82.7 | 58.5 | 7.61 | 80.4 | 87.6 | 83.1 | 91.8 | 96.9 | 93.7 | 85.6 | 95.9 | 82.6 | 66.3 | 15.4
3 | O=C(c1ccc(/C=C/c2n[nH]c3ccccc23)cc1)N1CCNCC1 | 94.8 | 101 | 98 | 99.4 | 111 | 102 | 108 | 9.55 | 13.2 | 12.2 | 19.6 | 92.6 | 90.8 | 100 | 91.3 | 101 | 107 | 102 | 13.5 | 16.9 | 16.3 | 19.5 | 91.2 | 95.8 | 86.5 | 104 | 99.7 | 98.3 | 100 | 25.3 | 29.6 | 25.8 | 31.2
4 | CC[C@H](NC(C)C)[C@H](O)c1ccc(O)c2[nH]c(=O)ccc12 | 108 | 111 | 102 | 106 | 99 | 102 | 101 | 105 | 102 | 92.1 | 97.8 | 102 | 106 | 104 | 101 | 96.9 | 107 | 108 | 94.3 | 95.2 | 94.1 | 92.6 | 91.4 | 98.2 | 97.6 | 95 | 100 | 97.1 | 98.2 | 89.9 | 93.5 | 95.1 | 93.8
5 | CCC[C@@H](C=O)NC(=O)[C@H](CC(C)C)NC(=O)[C@H](CC(C)C)NC(=O)OCc1ccccc1 | 107 | 108 | 120 | 120 | 117 | 118 | 132 | 118 | 12.1 | 6.77 | 5.18 | 105 | 116 | 113 | 118 | 122 | 121 | 121 | 104 | 7.61 | 6.3 | 4.83 | 104 | 115 | 120 | 124 | 124 | 130 | 133 | 133 | 14.7 | 7.12 | 5.01
6 | CC(C)C(=O)Nc1ncc(-c2cc(C(F)F)nn2-c2c(Cl)cccc2Cl)s1 | 122 | 122 | 117 | 120 | 126 | 136 | 129 | 131 | 134 | 132 | 63.5 |  |  |  |  |  |  |  |  |  |  |  |  |  |  |  |  |  |  |  |  |  | 
7 | COc1ccc(CC2c3cc(OC)c(OC)cc3CC[N+]2(C)CCC(=O)OCCCCCOC(=O)CC[N+]2(C)CCc3cc(OC)c(OC)cc3C2Cc2ccc(OC)c(OC)c2)cc1OC (stereo not given) | 86.1 | 86.6 | 86.3 | 97.2 | 90.5 | 96.3 | 92 | 96.6 | 97.8 | 95.1 | 86.7 | 82.7 | 86.4 | 91.6 | 92.1 | 92.4 | 95.6 | 99.3 | 99.2 | 85.3 | 96.3 | 83.7 | 80.3 | 83.5 | 87.3 | 91.4 | 93.1 | 96.6 | 93.2 | 83.1 | 86.2 | 95.1 | 90.7
8 | NCCCCCC(=O)O | 107 | 109 | 106 | 90.4 | 117 | 105 | 114 | 104 | 102 | 95.3 | 101 | 102 | 101 | 98.6 | 85.2 | 109 | 105 | 110 | 101 | 92.2 | 105 | 88.4 | 98.2 | 112 | 108 | 84.1 | 108 | 97.2 | 105 | 94.7 | 96 | 88.4 | 92.4
9 | CCc1c(O)cc(O)c(C(=O)c2ccc(OCCN3CCOCC3)c(OC)c2)c1CC(=O)N(CCOC)CCOC | 102 | 105 | 118 | 112 | 112 | 105 | 104 | 87.6 | 59.9 | 41.1 | 40.9 | 100 | 101 | 113 | 105 | 108 | 103 | 93.5 | 78 | 41.1 | 32.7 | 35.4 | 106 | 102 | 105 | 110 | 110 | 104 | 85 | 84.5 | 42.6 | 32 | 35

Source: the supplement of paper PMC11451515
